Earlier results in patent US11278564B2, “Brain function-improving agent, food, and medicine using lipopolysaccharide” (Control of Innate Immunity Technology Research Association, priority 2017, dated 2022).

Details: intraperitoneal injection (NPL 5)

Substance: monophosphoryl lipid A [MPL]
- Aβ intracerebral deposition: Aβ intracerebral deposition suppressing action
- learning function: learning function-improving action
